Laboratory results reported in the NIST ThermoML archive (doi:10.1016/j.jct.2004.07.014).
± gives the expanded uncertainty stated by the source.

Conditions: Liquid, Closed cell (Static) method

**Q.** What does the source list for CC#N [acetonitrile]?
**A.** vapor or sublimation pressure (305.51 K): 16.47 ± 0.22 kPa; vapor or sublimation pressure (323.12 K): 33.71 ± 0.25 kPa; vapor or sublimation pressure (353.13 K): 96.17 ± 0.37 kPa
